How the values were obtained:
Assay type in all cases: in vivo
[1] = tested on: ryegrass, Italian (Italian ryegrass, Lolium multiflorum); test: Test A preemergence; settings: Lolium multiflorum, pre-emergence, 240 h, 0 to 100 scale where 0 is no effect and 100 is complete control, read-out: Ryegrass, Italian plant response rating
Summary of the method: (§1)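 Ratings of 0 (no effect) to 100 (complete control) come from visual comparison with untreated controls roughly 10 d after treatment. Test chemicals, formulated in a non-phytotoxic solvent mixture with surfactant, were applied either as a preemergence directed soil spray on seeded soil or postemergence to one- to two-leaf plants 2 to 10 cm tall.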

[2] = tested on: pigweed (Amaranthus retroflexus); test: Test A preemergence; settings: Amaranthus retroflexus, pre-emergence, 240 h, 0 to 100 scale where 0 is no effect and 100 is complete control, read-out: Pigweed plant response rating
[3] = tested on: barnyardgrass (Echinochloa crus-galli); test: Test A preemergence; settings: Echinochloa crus-galli, pre-emergence, 240 h, 0 to 100 scale where 0 is no effect and 100 is complete control, read-out: Barnyardgrass plant response rating
Summary of the method: as §1

[4] = tested on: giant foxtail (Setaria faberii); test: Test A preemergence; settings: Setaria faberi, pre-emergence, 240 h, 0 to 100 scale where 0 is no effect and 100 is complete control, read-out: Foxtail, Giant plant response rating
Summary of the method: as §1

[5] = tested on: ragweed (common ragweed, Ambrosia elatior); test: Test A preemergence; settings: Ambrosia artemisiifolia, pre-emergence, 240 h, 0 to 100 scale where 0 is no effect and 100 is complete control, read-out: Ragweed plant response rating
Summary of the method: as §1

Kochia (Kochia scoparia) [6] = test: Test A preemergence; settings: Bassia scoparia, pre-emergence, 240 h, 0 to 100 scale where 0 is no effect and 100 is complete control, read-out: Kochia plant response rating
Summary of the method: as §1

[7] = tested on: barnyardgrass (Echinochloa crus-galli); test: Test B flooded paddy test; settings: Echinochloa crus-galli, 250 g ai/ha, Flood; 0 to 100 scale where 0 is no effect and 100 is complete control; read-out: Barnyardgrass plant response rating
Summary of the method: (§2)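 Percent control, visually estimated after 13–15 d in the greenhouse on a 0–100 basis, compares treated pots with untreated ones; compound was put into paddy water 3 cm above the soil when plants had two leaves.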

rice (Oryra sativa) = test: Test B flooded paddy test; settings: Oryza sativa, 250 g ai/ha, Flood; 0 to 100 scale where 0 is no effect and 100 is complete control; read-out: Rice plant response rating
Summary of the method: as §2

[8] = tested on: sedge, umbrella (small-flower umbrella sedge, Cyperus difformis); test: Test B flooded paddy test; settings: Cyperus difformis, 250 g ai/ha, Flood; 0 to 100 scale where 0 is no effect and 100 is complete control; read-out: Sedge, Umbrella plant response rating
Summary of the method: as §2

[9] = tested on: ducksalad (Heteranthera limosa); test: Test B flooded paddy test; settings: Heteranthera limosa, 250 g ai/ha, Flood; 0 to 100 scale where 0 is no effect and 100 is complete control; read-out: Ducksalad plant response rating
Summary of the method: as §2

[10] = tested on: ryegrass, Italian (Italian ryegrass, Lolium multiflorum); test: Test A postemergence; settings: Lolium multiflorum, post-emergence, 240 h, read-out: Ryegrass, Italian plant response rating (0 to 100 scale)
Summary of the method: as §1

[11] = tested on: pigweed (Amaranthus retroflexus); test: Test A postemergence; settings: Amaranthus retroflexus, post-emergence, 240 h, read-out: Pigweed plant response rating (0 to 100 scale)
Summary of the method: as §1

[12] = tested on: barnyardgrass (Echinochloa crus-galli); test: Test A postemergence; settings: Echinochloa crus-galli, post-emergence, 240 h, read-out: Barnyardgrass plant response rating (0 to 100 scale)
Summary of the method: as §1

[13] = tested on: blackgrass (Alopecurus myosuroides); test: Test A postemergence; settings: Alopecurus myosuroides, post-emergence, 240 h, read-out: Blackgrass plant response rating (0 to 100 scale)
Summary of the method: as §1

[14] = tested on: giant foxtail (Setaria faberii); test: Test A postemergence; settings: Setaria faberi, post-emergence, 240 h, read-out: Foxtail, Giant plant response rating (0 to 100 scale)
Summary of the method: as §1

[15] = tested on: Galium (catchweed bedstraw, Galium aparine); test: Test A postemergence; settings: Galium, post-emergence, 240 h, read-out: Galium plant response rating (0 to 100 scale)
Summary of the method: as §1

corn (Zea mays) = test: Test A postemergence; settings: Zea mays, post-emergence, 240 h, read-out: Corn plant response rating (0 to 100 scale)
Summary of the method: as §1

[16] = tested on: ragweed (common ragweed, Ambrosia elatior); test: Test A postemergence; settings: Ambrosia artemisiifolia, post-emergence, 240 h, read-out: Ragweed plant response rating (0 to 100 scale)
Summary of the method: as §1

Kochia (Kochia scoparia) [17] = test: Test A postemergence; settings: Bassia scoparia, post-emergence, 240 h, read-out: Kochia plant response rating (0 to 100 scale)
Summary of the method: as §1

[18] = tested on: wheat (Triticum aestivum); test: Test A postemergence; settings: Triticum aestivum, post-emergence, 240 h, Postemergence, 31 g ai/ha; 0 is no effect, 100 is complete control; read-out: Wheat plant response rating (0 to 100 scale)
Summary of the method: as §1

[19] = 125 g ai/ha, preemergence, visual injury rating, approximately 10 d
[20] = 125 g ai/ha, postemergence, visual injury vs untreated controls after approx. 10 d, 0 = no effect, 100 = complete control
[21] = Postemergence, 31 g ai/ha, 0 is no effect, 100 is complete control

Cn1ccc2ccc([C@H]3CNC(=O)[C@@H]3C(=O)Nc3ccccc3F)cc21 [Compound 1264]
0%: pest or weed control at 31 g/ha ([1]; 31 g ai/ha, Preemergence) | pest or weed control at 125 g/ha [1, 19] | pest or weed control at 31 g/ha ([2]; 31 g ai/ha, Preemergence) | pest or weed control at 125 g/ha [2, 19] | pest or weed control at 31 g/ha ([3]; 31 g ai/ha, Preemergence) | pest or weed control at 125 g/ha [3, 19] | pest or weed control at 31 g/ha ([4]; 31 g ai/ha, Preemergence) | pest or weed control at 125 g/ha [4, 19] | pest or weed control at 31 g/ha ([5]; 31 g ai/ha, Preemergence) | pest or weed control at 125 g/ha [5, 19] | pest or weed control at 31 g/ha (Kochia (Kochia scoparia) [6]; 31 g ai/ha, Preemergence) | pest or weed control at 125 g/ha (Kochia (Kochia scoparia) [6]; [19]) | pest or weed control at 250 g/ha [7] | pest or weed control at 250 g/ha (rice (Oryra sativa)) | pest or weed control at 250 g/ha [8] | pest or weed control at 250 g/ha [9] | pest or weed control at 125 g/ha [10, 20] | pest or weed control at 31 g/ha [10, 21] | pest or weed control at 125 g/ha [11, 20] | pest or weed control at 31 g/ha [11, 21] | pest or weed control at 125 g/ha [12, 20] | pest or weed control at 31 g/ha [12, 21] | pest or weed control at 125 g/ha [13, 20] | pest or weed control at 31 g/ha [13, 21] | pest or weed control at 125 g/ha [14, 20] | pest or weed control at 31 g/ha [14, 21] | pest or weed control at 125 g/ha [15, 20] | pest or weed control at 31 g/ha [15, 21] | plant injury at 125 g/ha (corn (Zea mays); [20]) | plant injury at 31 g/ha (corn (Zea mays); [21]) | pest or weed control at 125 g/ha [16, 20] | pest or weed control at 31 g/ha [16, 21] | pest or weed control at 125 g/ha (Kochia (Kochia scoparia) [17]; [20]) | pest or weed control at 31 g/ha (Kochia (Kochia scoparia) [17]; [21]) | plant injury at 31 g/ha [18]

— patent US12077503B2, “Substituted cyclic amides and their use as herbicides” (FMC CORPORATION, priority 2015, dated 2024)
